Broadly, the IC50 is the concentration that inhibits the measured activity by half. A higher IC50 goes with weaker potency in that assay.

The target of the assay is T1, mouse TRPM3α2 (mTRPM3) ion channel (Mus musculus, UniProt J9SQF3).
T1 construct: expressed in transfected cells; host or cells: flip-in HEK293
T1 sequence (J9SQF3 1-1709 isoform J9SQF3-12): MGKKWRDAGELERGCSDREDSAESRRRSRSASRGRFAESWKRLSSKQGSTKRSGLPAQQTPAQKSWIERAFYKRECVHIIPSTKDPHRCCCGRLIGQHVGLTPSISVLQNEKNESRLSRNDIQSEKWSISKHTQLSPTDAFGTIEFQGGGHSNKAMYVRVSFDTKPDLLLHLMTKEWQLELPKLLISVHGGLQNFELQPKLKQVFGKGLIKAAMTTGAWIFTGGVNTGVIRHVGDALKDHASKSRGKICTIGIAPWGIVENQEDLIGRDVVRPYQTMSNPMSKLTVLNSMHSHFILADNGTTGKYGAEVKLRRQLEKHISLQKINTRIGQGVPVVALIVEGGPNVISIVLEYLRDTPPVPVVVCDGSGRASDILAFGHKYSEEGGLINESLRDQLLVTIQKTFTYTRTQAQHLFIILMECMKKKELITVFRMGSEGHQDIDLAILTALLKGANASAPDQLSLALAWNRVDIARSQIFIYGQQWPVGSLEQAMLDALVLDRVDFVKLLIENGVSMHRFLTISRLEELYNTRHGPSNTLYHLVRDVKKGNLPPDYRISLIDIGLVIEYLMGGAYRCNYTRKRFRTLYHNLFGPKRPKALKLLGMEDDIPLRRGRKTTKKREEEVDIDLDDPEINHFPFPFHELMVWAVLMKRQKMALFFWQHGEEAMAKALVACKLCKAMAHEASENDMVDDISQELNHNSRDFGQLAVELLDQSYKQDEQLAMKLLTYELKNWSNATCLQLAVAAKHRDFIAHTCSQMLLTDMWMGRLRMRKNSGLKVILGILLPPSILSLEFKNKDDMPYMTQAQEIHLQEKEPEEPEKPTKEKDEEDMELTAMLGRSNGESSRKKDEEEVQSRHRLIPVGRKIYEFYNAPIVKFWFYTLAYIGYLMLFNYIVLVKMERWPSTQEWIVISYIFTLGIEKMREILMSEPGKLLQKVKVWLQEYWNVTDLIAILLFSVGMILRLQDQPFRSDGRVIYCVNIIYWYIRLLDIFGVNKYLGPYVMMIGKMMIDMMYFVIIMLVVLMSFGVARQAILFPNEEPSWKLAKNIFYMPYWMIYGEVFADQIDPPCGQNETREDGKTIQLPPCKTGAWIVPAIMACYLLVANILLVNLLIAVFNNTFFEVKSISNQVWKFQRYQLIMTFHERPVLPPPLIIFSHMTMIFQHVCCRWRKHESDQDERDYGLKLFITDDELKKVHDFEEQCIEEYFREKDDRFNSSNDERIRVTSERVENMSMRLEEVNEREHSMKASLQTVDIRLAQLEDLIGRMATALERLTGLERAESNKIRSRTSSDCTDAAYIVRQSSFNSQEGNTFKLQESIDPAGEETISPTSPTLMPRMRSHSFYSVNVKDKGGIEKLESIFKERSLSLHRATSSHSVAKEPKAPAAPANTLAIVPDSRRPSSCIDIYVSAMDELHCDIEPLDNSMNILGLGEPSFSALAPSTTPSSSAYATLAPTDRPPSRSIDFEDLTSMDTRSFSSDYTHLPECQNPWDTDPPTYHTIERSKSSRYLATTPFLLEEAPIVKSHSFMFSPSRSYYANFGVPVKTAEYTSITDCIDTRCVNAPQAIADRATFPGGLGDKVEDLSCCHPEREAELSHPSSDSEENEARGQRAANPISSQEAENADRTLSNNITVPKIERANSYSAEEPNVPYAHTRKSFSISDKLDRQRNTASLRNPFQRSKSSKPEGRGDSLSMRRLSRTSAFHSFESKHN
Kind of assay: TRPM3 ion channel driven Ca2+ uptake, Fluo-4 AM assay, mTRPM3alpha2 overexpressing flip-in HEK293 cells stimulated with pregnenolone sulfate (50 μM). The format is cell-based. Conditions: mTRPM3 overexpressing HEK293 cells stimulated with pregnenolone sulfate (50 μM), activity ranges A, B, C. In outline:
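Flip-in HEK293 cells overexpressing mTRPM3α2, loaded with Fluo-4 AM, added at ±2000 cells/well to plates holding compound plus 50 μM pregnenolone sulfate in Ca2+-containing Krebs buffer. Fluorescence (ex 485/em 535 nm) read immediately. Percent inhibition normalised between vehicle and positive-control inhibitor; IC50 derived.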
`Cc1ncsc1COc1ccc2nn(C)c(C(=O)Nc3ccn(C)n3)c2c1` [Cpd 018, 2-methyl-5-[(4-methyl-1,3-thiazol-5-yl)methoxy]-N-(1-methyl-1H-pyrazol-3-yl)-2H-indazole-3-carboxamide] gave an IC50 of 1 to 20 µM. Next, `Cc1ncsc1COc1ccc2nn(C)c(C(=O)NC(C)(CO)C(N)=O)c2c1` (single isomer, unassigned) [Cpd 151 - En1]: under 1 µM; `Cn1nc2ccc(OCc3ccccc3F)cc2c1C(=O)NC1(C(N)=O)CCOC1` (single isomer, unassigned) [Cpd 166 - En1]: 1 to 20 µM. `Cn1nc2ccc(OCc3cccnc3C(F)(F)F)cc2c1C(=O)NC1(CO)CC1` [Cpd 022, N-[1-(hydroxymethyl)cyclopropyl]-2-methyl-5-{[2-(trifluoromethyl)pyridin-3-yl]methoxy}-2H-indazole-3-carboxamide] returned an IC50 of 1 to 20 µM. Next, `CN1CC(NC(=O)c2c3cc(OCc4ccccc4)ccc3nn2C)C(F)(F)C1` (stereo not drawn) [Cpd 034, 5-(benzyloxy)-N-(4,4-difluoro-1-methylpyrrolidin-3-yl)-2-methyl-2H-indazole-3-carboxamide]: 1 to 20 µM.

In turn, `Cn1nc2ccc(OCC3CC3)cc2c1C(=O)NCCNS(C)(=O)=O` [Cpd 140, 5-(cyclopropylmethoxy)-N-(2-methanesulfonamidoethyl)-2-methyl-2H-indazole-3-carboxamide] returned an IC50 of over 20 µM.

On to `Cn1nc2ccc(OCc3cccnc3C(F)(F)F)cc2c1C(=O)N[C@@H]1COC[C@@H]1O` (single isomer, unassigned) [Cpd 010 - Dia1], for which the 50% inhibitory concentration (IC50) fell in the range of 1 to 20 µM.

Consider `Cn1nc2ccc(OCc3ccccn3)cc2c1C(=O)NC1CNCC(F)(F)C1` (single isomer, unassigned) [Cpd 214 - En2], for which the concentration for half-maximal inhibition (IC50) lay within 1 to 20 µM. Next, `Cn1nc2ccc(OCc3ccccn3)cc2c1C(=O)NC(CO)Cc1ncccn1` (single isomer, unassigned) [Cpd 243 - En1]: over 20 µM. Next, `Cn1ccc(C(CO)NC(=O)c2c3cc(OCc4ccccn4)ccc3nn2C)n1` (single isomer, unassigned) [Cpd 251 - En1]: over 20 µM. The value for `Cn1nc2ccc(OCc3ccccc3)cc2c1C(=O)NC(C)(CO)CO` [Cpd 017, 5-(benzyloxy)-N-(1,3-dihydroxy-2-methylpropan-2-yl)-2-methyl-2H-indazole-3-carboxamide] was 1 to 20 µM. In turn, `Cn1nc2ccc(OCc3ccccn3)cc2c1C(=O)NC1(CO)CC1C(F)F` (single isomer, unassigned) [Cpd 237 - En2] showed an IC50 of over 20 µM. Next, `Cn1nc2ccc(OCc3ccccn3)cc2c1C(=O)NC1(CO)CC1C(F)F` (single isomer, unassigned) [Cpd 237 - En1]: 1 to 20 µM; `Cn1nc2ccc(OCc3ccccn3)cc2c1C(=O)NC(CO)Cn1ccnc1C(F)(F)F` (stereo not drawn) [Cpd 242, N-{1-hydroxy-3-[2-(trifluoromethyl)-1H-imidazol-1-yl]propan-2-yl}-2-methyl-5-[(pyridin-2-yl)methoxy]-2H-indazole-3-carboxamide]: over 20 µM. The value for `Cn1ccc(COc2ccc3nn(C)c(C(=O)NC(C)(CO)C(N)=O)c3c2)n1` (single isomer, unassigned) [Cpd 155 - En2] was 1 to 20 µM. The value for `Cn1nc2ccc(OCc3cccnc3C(F)(F)F)cc2c1C(=O)NC1(CO)CCOCC1` [Cpd 029, N-[4-(hydroxymethyl)oxan-4-yl]-2-methyl-5-{[2-(trifluoromethyl)pyridin-3-yl]methoxy}-2H-indazole-3-carboxamide] was 1 to 20 µM; that for `Cc1ncsc1COc1ccc2nn(C)c(C(=O)NC3(C(N)=O)COC3)c2c1` [Cpd 031, N-(3-carbamoyloxetan-3-yl)-2-methyl-5-[(4-methyl-1,3-thiazol-5-yl)methoxy]-2H-indazole-3-carboxamide] was 1 to 20 µM; that for `Cn1nc2ccc(OCc3ccccc3F)cc2c1C(=O)NC(C)(CO)CC(F)F` (single isomer, unassigned) [Cpd 203 - En2] was under 1 µM.
